Test results reported in article PMC9587032, “Mapping periplasmic binding protein oligosaccharide recognition with neutron crystallography” (Scientific Reports, 2022).

Molecular target: T1, tmMBP (tmMBP2 isoform; maltodextrin-binding protein) (Thermotoga maritima, UniProt Q9S5Y1)
T1 construct: gene TM_1839; H/D-exchanged crystal, single chain in asymmetric unit
T1 sequence (Q9S5Y1 20-393): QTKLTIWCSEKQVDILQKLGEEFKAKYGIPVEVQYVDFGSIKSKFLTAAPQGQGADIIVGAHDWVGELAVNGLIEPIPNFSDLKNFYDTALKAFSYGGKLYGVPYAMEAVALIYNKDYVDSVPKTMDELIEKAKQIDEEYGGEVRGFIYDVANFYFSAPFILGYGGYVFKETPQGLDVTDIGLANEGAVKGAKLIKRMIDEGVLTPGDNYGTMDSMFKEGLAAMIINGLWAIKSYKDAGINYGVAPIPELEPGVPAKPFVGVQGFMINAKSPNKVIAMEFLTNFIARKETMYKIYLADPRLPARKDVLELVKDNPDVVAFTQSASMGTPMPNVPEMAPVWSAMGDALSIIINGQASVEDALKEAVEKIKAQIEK
Assay: joint neutron/X-ray crystal structure
Conditions: pH 5.5 crystals, room temperature, D2O exchanged; interdomain binding site; neutron 2.10 A, X-ray 1.70 A

Compound: OC[C@H]1O[C@H](O[C@H]2[C@H](O)[C@@H](O)[C@@H](O[C@H]3[C@H](O)[C@@H](O)[C@@H](O[C@H]4[C@H](O)[C@@H](O)C(O)O[C@@H]4CO)O[C@@H]3CO)O[C@@H]2CO)[C@H](O)[C@@H](O)[C@@H]1O (stereo partly shown) [maltotetraose]
- joint neutron/X-ray crystal structure: final refined atomic model for maltotetraose bound tmMBP have been deposited
